Assay results: patent US20240342066A1, “HIGH POTENCY EMULSIONS” (Vertosa Inc., priority 0001, published 2024)

Tested on: skin
Test: Patch test for skin irritation and allergy
Assay type: in vivo, human
Conditions: positive control
Procedure: These three emulsions were first evaluated for skin irritation and allergy studies using a patch test at a third-party skin care evaluation lab. The three pure emulsion formulas were tested at 20 mg/mL concentration on the patch on 55 subjects.
The patches were prepared with each of the 3 different emulsion types separately. Each emulsion was prepared at 20 mg/g. The test was focused on the effects of the emulsion without the influence of any other skin care ingredients. The goal was to stress test if pure emulsion can cause any skin irritation. […]
Below is the procedure of the patch test: • Step 1: Subjects were requested to bathe or wash as usual before arrival at the facility. • Step 2: Patches containing the test material were then affixed directly to the skin of the intrascapular regions of the back, to the right or left of the midline, and subjects were dismissed with instructions not to wet or expose the test area to direct sunlight. • Step 3: Patches remained in place for 48 hours after the first application. […] Test sites were evaluated by trained laboratory personnel 48 and 96 hours after application. • Step 7: In the event of an adverse reaction, the area of erythema and edema were measured. […]

CCCCCCCCCCCCOS(=O)(=O)[O-].[Na+] [2.0% Sodium Lauryl Sulfate Solution, Sodium Lauryl Sulfate]
subjects with a Grade 1 reaction: 8 subjects
